Experimental data from patent US8436000B2, “Substituted carbamate derivatives as modulators of corticotropin-releasing factor receptor activity” (Bristol-Myers Squibb Company, priority 2008, dated 2013).

What was measured:
[1] = biological target: T1, CRF1 (Rattus norvegicus, UniProt P35353); experiment: CRF1 Binding Assay (125I-ovine-CRF displacement, rat frontal cortex homogenate); settings: 125I-o-CRF
T1 construct: Frozen rat frontal cortex was thawed rapidly in assay buffer; tissue Analytical Biological Services, Inc. (Wilmington, Del.); host or cells: rat frontal cortex
T1 sequence (P35353 24-415): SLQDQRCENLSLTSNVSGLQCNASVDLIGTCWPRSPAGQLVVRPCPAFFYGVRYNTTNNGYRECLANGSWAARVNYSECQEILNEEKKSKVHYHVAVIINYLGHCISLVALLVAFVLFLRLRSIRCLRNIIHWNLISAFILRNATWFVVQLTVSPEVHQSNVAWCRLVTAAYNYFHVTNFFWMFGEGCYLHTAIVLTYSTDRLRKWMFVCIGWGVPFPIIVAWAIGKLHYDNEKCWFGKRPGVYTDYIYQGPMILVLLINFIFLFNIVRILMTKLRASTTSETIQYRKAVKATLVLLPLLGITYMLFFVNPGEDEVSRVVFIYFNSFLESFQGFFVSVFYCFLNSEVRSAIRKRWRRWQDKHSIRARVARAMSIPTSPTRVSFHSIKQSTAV
Protocol: Frozen rat frontal cortex was thawed rapidly in assay buffer containing 50 mM Hepes (pH 7.0 at 23° C.), 10 mM MgCl2, 2 mM EGTA, 1 μg/ml aprotinin, 1 μg/ml leupeptin, 1 Mg/ml pepstatin A, 0.005% Triton X-100, 10 U/ml bacitracin and 0.1% ovalbumin and homogenized. The suspension was centrifuged at 32000×g for 30 minutes. The resulting supernatant was discarded and the pellet resuspended by homogenization in assay buffer and centrifuged again. The supernatant was discarded and the pellet resuspended by homogenization in assay buffer and frozen at −70° C. On the day of the experiment aliquots of the homogenate were thawed quickly and 25 μg/well added to […] ^125I-ovine-CRF (^125I-o-CRF) and drugs in a total volume of 100 μl assay buffer. The assay mixture was incubated for 2 hr at 21° C. Bound and free radioligand were then separated by rapid filtration using glass fiber filters (Whatman GF/B, pretreated with 0.3% PEI (polyethylenimine)) on a Brandel Cell Harvester. Filters were then washed multiple times with ice cold wash buffer (PBS w/o Ca^2+ and Mg^2+, 0.01% Triton X-100; pH 7.0 at 23° C.). Non-specific binding was defined using 1 μM DMP696, a CRF1 selective antagonist [Li, Y-W. et al., CNS Drug Reviews 11: 21-52, (2005)]. Filters were then counted in a Wallac Wizard gamma counter. IC50 values were determined in a five point (five drug concentrations) or ten point (ten drug concentrations) competition assay using non-linear regression by Microsoft Excel-fit. Rat frontal cortex was obtained from Analytical Biological Services, Inc. (Wilmington, Del.). ^125I-ovine-CRF (2200 Ci/mmol) was obtained from PerkinElmer Life Sciences, Inc. (Boston, Mass.).

[2] = system: Human Y-79 retinoblastoma cells; experiment: Functional Assay (Y-79 cells), CRF-stimulated cAMP production (HTRF); type: cell-based; settings: stimulation of cAMP production in Y-79 cells, n=6
Protocol: Functional Assay (Y-79 cells).
Human Y-79 retinoblastoma cells were suspended in assay buffer (Hank's Balanced Salt Solution containing 2 mM CaCl2, 5 mM MgCl2, 20 mM HEPES, 1 mM IBMX) and plated at 20,000 cells/well in a 96-well black plate. CRF antagonists (typically 0.01 to 10,000 nM) were then added to wells as needed and allowed to equilibrate with the cells for 30 minutes at 37° C. […] The reaction was terminated by the addition of a lysis solution containing homogeneous time resolved florescence (HTRF) cAMP XL665 conjugate followed by HTRF anti-cAMP cryptate conjugate (CIS bio International). Plates were subsequently incubated at room temperature for 1 hour prior to reading the time-resolved fluorescence signal. The amount of cAMP produced was estimated from a standard curve prepared using known concentrations of cAMP. The percentage inhibition of CRF-induced cAMP production was determined for each compound (triplicate determinations). The effect of CRF antagonists on basal cAMP production (i.e. in the absence of CRF) was also determined.

| IC50 ([1]; class symbols) | Compound | further results |
| --- | --- | --- |
| 0.1 to 100 nM | COc1nc(C)c(Nc2nc(Cl)cn([C@H](COC(=O)Nc3ccccc3)C3CC3)c2=O)cc1C [Example 1, (S)-2-(5-Chloro-3-(6-methoxy-2,5-dimethylpyridin-3-ylamino)-2-oxopyrazin-1(2H)-yl)-2-cyclopropylethyl phenylcarbamate] |  |
| 0.1 to 100 nM | COc1nc(C)c(Nc2nc(Cl)cn([C@H](COC(=O)Nc3cccc(C#N)c3)C3CC3)c2=O)cc1C [Example 2, (S)-2-(5-Chloro-3-(6-methoxy-2,5-dimethylpyridin-3-ylamino)-2-oxopyrazin-1(2H)-yl)-2-cyclopropylethyl 3-cyanophenylcarbamate] | melting point: 206.5 to 207.2 °C |
| 0.1 to 100 nM | COc1nc(C)c(Nc2nc(Cl)cn([C@H](COC(=O)Nc3cccnc3)C3CC3)c2=O)cc1C [Example 3, (S)-2-(5-Chloro-3-(6-methoxy-2,5-dimethylpyridin-3-ylamino)-2-oxopyrazin-1(2H)-yl)-2-cyclopropylethyl pyridin-3-ylcarbamate] |  |
| 0.1 to 100 nM | COc1nc(C)c(Nc2nc(Cl)cn([C@H](COC(=O)Nc3ccccc3Cl)C3CC3)c2=O)cc1C [Example 4, (S)-2-(5-Chloro-3-(6-methoxy-2,5-dimethylpyridin-3-ylamino)-2-oxopyrazin-1(2H)-yl)-2-cyclopropylethyl 2-chlorophenylcarbamate] |  |
| 0.1 to 100 nM | COc1nc(C)c(Nc2nc(Cl)cn([C@H](COC(=O)Nc3cc(Cl)cc(Cl)c3)C3CC3)c2=O)cc1C [Example 6, (S)-2-(5-Chloro-3-(6-methoxy-2,5-dimethylpyridin-3-ylamino)-2-oxopyrazin-1(2H)-yl)-2-cyclopropylethyl 3,5-dichlorophenylcarbamate] |  |
| 0.1 to 100 nM | COc1nc(C)c(Nc2nc(Cl)cn([C@H](COC(=O)Nc3ccc(Cl)cc3Cl)C3CC3)c2=O)cc1C [Example 7, (S)-2-(5-Chloro-3-(6-methoxy-2,5-dimethylpyridin-3-ylamino)-2-oxopyrazin-1(2H)-yl)-2-cyclopropylethyl 2,4-dichlorophenylcarbamate] |  |
| 0.1 to 100 nM | COc1ccc(NC(=O)OC[C@H](C2CC2)n2cc(Cl)nc(Nc3cc(C)c(OC)nc3C)c2=O)c(C)n1 [Example 13, (S)-2-(5-Chloro-3-(6-methoxy-2,5-dimethylpyridin-3-ylamino)-2-oxopyrazin-1(2H)-yl)-2-cyclopropylethyl 6-methoxy-2-dimethylpyridin-3-ylcarbamate] |  |

Further lines, the compound ahead of its results:

| Compound | IC50 ([1]; class symbols) | further results |
| --- | --- | --- |
| COc1nc(C)c(Nc2nc(Cl)cn([C@H](COC(=O)Nc3ccc(Cl)cc3)C3CC3)c2=O)cc1C [Example 5, (S)-2-(5-Chloro-3-(6-methoxy-2,5-dimethylpyridin-3-ylamino)-2-oxopyrazin-1(2H)-yl)-2-cyclopropylethyl 4-chlorophenylcarbamate] | 0.1 to 100 nM |  |
| CCCCNC(=O)OC[C@H](C1CC1)n1cc(Cl)nc(Nc2cc(C)c(OC)nc2C)c1=O [Example 8, (S)-2-(5-Chloro-3-(6-methoxy-2,5-dimethylpyridin-3-ylamino)-2-oxopyrazin-1(2H)-yl)-2-cyclopropylethyl butylcarbamate] |  | IC50 ([1]; numeric values): 4.74 nM |
| CCCNC(=O)OC[C@H](C1CC1)n1cc(Cl)nc(Nc2cc(C)c(OC)nc2C)c1=O [Example 9, (S)-2-(5-Chloro-3-(6-methoxy-2,5-dimethylpyridin-3-ylamino)-2-oxopyrazin-1(2H)-yl)-2-cyclopropylethyl propylcarbamate] | 0.1 to 100 nM |  |
| CCNC(=O)OC[C@H](C1CC1)n1cc(Cl)nc(Nc2cc(C)c(OC)nc2C)c1=O [Example 10, (S)-2-(5-Chloro-3-(6-methoxy-2,5-dimethylpyridin-3-ylamino)-2-oxopyrazin-1(2H)-yl)-2-cyclopropylethyl ethylcarbamate] | 0.1 to 100 nM |  |
| CCOc1nc(C)c(NC(=O)OC[C@H](C2CC2)n2cc(Cl)nc(Nc3cc(C)c(OC)nc3C)c2=O)cc1C [Example 11, (S)-2-(5-Chloro-3-(6-methoxy-2,5-dimethylpyridin-3-ylamino)-2-oxopyrazin-1(2H)-yl)-2-cyclopropylethyl 6-ethoxy-2,5-dimethylpyridin-3-ylcarbamate] |  | IC50 ([1]; numeric values): 15.9 nM |
| COc1nc(C)c(NC(=O)OC[C@H](C2CC2)n2cc(Cl)nc(Nc3cc(C)c(OC)nc3C)c2=O)cc1C [Example 12, (S)-2-(5-Chloro-3-(6-methoxy-2,5-dimethylpyridin-3-ylamino)-2-oxopyrazin-1(2H)-yl)-2-cyclopropyl ethyl 6-methoxy-2,5-dimethylpyridin-3-ylcarbamate] | 0.1 to 100 nM |  |
| Cc1cc(Nc2nc(Cl)cn([C@H](COC(=O)Nc3ccccc3)C3CC3)c2=O)c(C)nc1OC(F)F [Example 14, (S)-2-(5-Chloro-3-(6-(difluoromethoxy)-2,5-dimethylpyridin-3-ylamino)-2-oxopyrazin-1(2H)-yl)-2-cyclopropylethyl phenylcarbamate] |  | IC50 ([1]; numeric values): 0.74 nM |
| Cc1cc(Nc2nc(Cl)cn([C@H](COC(=O)Nc3cccnc3)C3CC3)c2=O)c(C)nc1OC(F)F [Example 15, (S)-2-(5-Chloro-3-(6-(difluoromethoxy)-2,5-dimethylpyridin-3-ylamino)-2-oxopyrazin-1(2H)-yl)-2-cyclopropylethyl pyridin-3-ylcarbamate] | 0.1 to 100 nM |  |
| Corticotropin releasing factor [CRF] |  | EC50 [2]: 1.11 ± 0.14 nM |
